The record followed here is BindingDB's records for doi:10.1021/jm060133g (Pfizer, 2006).

Experiment [1] concerns the target Neprilysin (Canis familiaris). Briefly: Inhibition of dog NEP.

Structures are written as SMILES. pIC50: −log10 of the molar value.

In turn, `CCCC(CC1(C(=O)N[C@H](C)c2ccccc2)CCCC1)C(=O)O` (stereo partly drawn) [2-((1-(((R)-1-phenylethyl)carbamoyl)cyclopentyl)methyl)pentanoic acid] had a pIC50 in the experiment “Inhibition of dog ACE” of less than 5.52.
Consider `CCCC(CC1(C(=O)Nc2ccc(=O)n(Cc3ccccc3)c2)CCCC1)C(=O)O` (centres undefined) [2-((1-((1-benzyl-6-oxo-1,6-dihydropyridin-3-yl)carbamoyl)cyclopentyl)methyl)pentanoic acid], for which the figures for the pIC50 (in experiment [1]; in “Inhibition of dog ACE”) were 6.50 and less than 5.52, respectively.
In experiment [1], `CCCC(CC1(C(=O)Nc2cc(C)ccn2)CCCC1)C(=O)O` (centres undefined) [2-((1-((4-methylpyridin-2-yl)carbamoyl)cyclopentyl)methyl)pentanoic acid] gave a pIC50 of 6.20.
In “Inhibition of dog ACE”, `CCCC(CC1(C(=O)NC2(CO)Cc3ccccc3C2)CCCC1)C(=O)O` (racemic) [rac-2-((1-((2-(hydroxymethyl)-2,3-dihydro-1H-inden-2-yl)carbamoyl)cyclopentyl)methyl)pentanoic acid] had a pIC50 of less than 5.52.
`CCCC(CC1(C(=O)Nc2cccc(CC)n2)CCCC1)C(=O)O` (centres undefined) [2-((1-((6-ethylpyridin-2-yl)carbamoyl)cyclopentyl)methyl)pentanoic acid] had a pIC50 in experiment [1] of less than 5.70.
For the molecule `CCCC(CC1(C(=O)NC2Cc3ccccc3C2)CCCC1)C(=O)O` (centres undefined) [2-((1-((2,3-dihydro-1H-inden-2-yl)carbamoyl)cyclopentyl)methyl)pentanoic acid], in the experiment “Inhibition of dog ACE”, the pIC50 was less than 5.52.
As for `CCCNc1ccnc(NC(=O)C2(CC(CCC)C(=O)O)CCCC2)n1` (centres undefined) [2-((1-((4-(propylamino)pyrimidin-2-yl)carbamoyl)cyclopentyl)methyl)pentanoic acid], the pIC50 was less than 5.70 in experiment [1] and less than 5.52 in the experiment “Inhibition of dog ACE”.
Molecule `CCCC(CC1(C(=O)NCc2nnc(C)s2)CCCC1)C(=O)O` (centres undefined) [2-((1-(((5-methyl-1,3,4-thiadiazol-2-yl)methyl)carbamoyl)cyclopentyl)methyl)pentanoic acid] gave a pIC50 in the experiment “Inhibition of dog ACE” of less than 5.52.
Regarding `CCCC(CC1(C(=O)N[C@H]2CC[C@@H](C(N)=O)CC2)CCCC1)C(=O)O` (stereo partly drawn) [cis-2-((1-((4-carbamoylcyclohexyl)carbamoyl)cyclopentyl)methyl)pentanoic acid], the pIC50 was 6.82 in experiment [1] and less than 5.52 in “Inhibition of dog ACE”.
The matching figures for `CCCC(CC1(C(=O)Nc2cc(Cc3ccccc3)ccn2)CCCC1)C(=O)O` (centres undefined) [2-((1-((4-benzylpyridin-2-yl)carbamoyl)cyclopentyl)methyl)pentanoic acid]: 7.02 and less than 5.52.
In the experiment “Inhibition of dog ACE”, `CCCC(CC1(C(=O)Nc2ccccn2)CCCC1)C(=O)O` (centres undefined) [2-((1-(pyridin-2-ylcarbamoyl)cyclopentyl)methyl)pentanoic acid] gave a pIC50 of less than 5.52.
On the same count and under the same terms, the result for `CCC[C@@H](CC1(C(=O)NC2(CO)Cc3ccccc3C2)CCCC1)C(=O)O` [(S)-2-((1-((2-(hydroxymethyl)-2,3-dihydro-1H-inden-2-yl)carbamoyl)cyclopentyl)methyl)pentanoic acid] reads less than 5.52.
Molecule `CCCC(CC1(C(=O)NCCc2ccc(Cl)cc2)CCCC1)C(=O)O` (centres undefined) [2-((1-((4-chlorophenethyl)carbamoyl)cyclopentyl)methyl)pentanoic acid] showed a pIC50 in experiment [1] of less than 5.70.
For `CCC[C@@H](CC1(C(=O)Nc2nnc(C)s2)CCCC1)C(=O)O` [(S)-2-((1-((5-methyl-1,3,4-thiadiazol-2-yl)carbamoyl)cyclopentyl)methyl)pentanoic acid], in the experiment “Inhibition of dog ACE”, the negative logarithm of the IC50 (pIC50) was less than 5.30.
Same read-out and setting: the result for `CCCCC(CC1(C(=O)Nc2nnc(CC)s2)CCCC1)C(=O)O` (centres undefined) [2-((1-((5-ethyl-1,3,4-thiadiazol-2-yl)carbamoyl)cyclopentyl)methyl)hexanoic acid] reads less than 5.52.
On to `CCCC(CC1(C(=O)N[C@@H]2CC[C@H](C(N)=O)C2)CCCC1)C(=O)O` (stereo partly drawn) [2-((1-(((1R,3S)-3-carbamoylcyclopentyl)carbamoyl)cyclopentyl)methyl)pentanoic acid], for which the pIC50 in experiment [1] was 6.67; in “Inhibition of dog ACE”, less than 5.52.
The corresponding values for `CCCC(CC1(c2nnc(-c3ccc(=O)n(Cc4ccccc4)c3)o2)CCCC1)C(=O)O` (centres undefined) [2-((1-(5-(1-benzyl-6-oxo-1,6-dihydropyridin-3-yl)-1,3,4-oxadiazol-2-yl)cyclopentyl)methyl)pentanoic acid] are 5.94 and less than 5.52.
As to `CCCCc1ccnc(NC(=O)C2(CC(CCC)C(=O)O)CCCC2)c1` (centres undefined) [2-((1-((4-butylpyridin-2-yl)carbamoyl)cyclopentyl)methyl)pentanoic acid], the pIC50 in experiment [1] was 6.74; in “Inhibition of dog ACE”, less than 5.52.
Regarding `CCCC(CC1(C(=O)Nc2ccc(OC)nn2)CCCC1)C(=O)O` (centres undefined) [2-((1-((6-methoxypyridazin-3-yl)carbamoyl)cyclopentyl)methyl)pentanoic acid], the pIC50 in the experiment “Inhibition of dog ACE” was less than 5.52.
Still for that read-out and setting: the figure for `CCCC(CC1(C(=O)N[C@H]2CC[C@@H](C(=O)N(C)C)CC2)CCCC1)C(=O)O` (stereo partly drawn) [cis-2-((1-((4-(dimethylcarbamoyl)cyclohexyl)carbamoyl)cyclopentyl)methyl)pentanoic acid] is less than 5.52; for `CCC[C@H](CC1(C(=O)Nc2nnc(CC)s2)CCCC1)C(=O)O` [(R)-2-((1-((5-ethyl-1,3,4-thiadiazol-2-yl)carbamoyl)cyclopentyl)methyl)pentanoic acid] it is less than 5.52.
Same read-out and setting: the figure for `CCCC(CC1(C(=O)Nc2nnc(CC)s2)CCCC1)C(=O)O` (racemic) [rac-2-((1-((5-ethyl-1,3,4-thiadiazol-2-yl)carbamoyl)cyclopentyl)methyl)pentanoic acid] is less than 5.52.
Consider `CCCC(CC1(c2nnc(Cc3ccccc3)o2)CCCC1)C(=O)O` (centres undefined) [2-((1-(5-benzyl-1,3,4-oxadiazol-2-yl)cyclopentyl)methyl)pentanoic acid], for which the negative-log IC50 (pIC50) in experiment [1] is 5.51; in the experiment “Inhibition of dog ACE” it was less than 5.52.
`CCCC(CC1(C(=O)Nc2ncccc2CC)CCCC1)C(=O)O` (centres undefined) [2-((1-((3-ethylpyridin-2-yl)carbamoyl)cyclopentyl)methyl)pentanoic acid]: the pIC50 in experiment [1] is 5.77.
Molecule `CCCC(CC1(C(=O)NCc2ccc3c(c2)OCO3)CCCC1)C(=O)O` (centres undefined) [2-((1-((benzo[d][1,3]dioxol-5-ylmethyl)carbamoyl)cyclopentyl)methyl)pentanoic acid] gave a pIC50 in “Inhibition of dog ACE” of less than 5.52.
Same read-out and setting: the figure for `CCCC(CC1(C(=O)Nc2cn(CC)nn2)CCCC1)C(=O)O` (centres undefined) [2-((1-((1-ethyl-1H-1,2,3-triazol-4-yl)carbamoyl)cyclopentyl)methyl)pentanoic acid] is less than 5.52.
As to `CCCC(CC1(C(=O)NC2(CO)CCCC2)CCCC1)C(=O)O` (centres undefined) [2-((1-((1-(hydroxymethyl)cyclopentyl)carbamoyl)cyclopentyl)methyl)pentanoic acid], the pIC50 in experiment [1] was 5.77; in the experiment “Inhibition of dog ACE”, less than 5.52.
The corresponding values for `CCCC(CC1(C(=O)N[C@@H]2CCN(Cc3ccccc3)C2)CCCC1)C(=O)O` (stereo partly drawn) [2-((1-(((R)-1-benzylpyrrolidin-3-yl)carbamoyl)cyclopentyl)methyl)pentanoic acid] are 5.97 and less than 5.52.
The matching figures for `CCCC(CC1(C(=O)Nc2nnc(CC(C)C)s2)CCCC1)C(=O)O` (centres undefined) [2-((1-((5-isobutyl-1,3,4-thiadiazol-2-yl)carbamoyl)cyclopentyl)methyl)pentanoic acid]: 6.91 and less than 5.52.
`CCCC(CC1(C(=O)Nc2nnc(CC3CC3)s2)CCCC1)C(=O)O` (centres undefined) [2-((1-((5-(cyclopropylmethyl)-1,3,4-thiadiazol-2-yl)carbamoyl)cyclopentyl)methyl)pentanoic acid] showed a pIC50 in the experiment “Inhibition of dog ACE” of less than 5.52.
For the molecule `CCc1nnc(NC(=O)C2(CC(CCC(C)C)C(=O)O)CCCC2)s1` (centres undefined) [2-((1-((5-ethyl-1,3,4-thiadiazol-2-yl)carbamoyl)cyclopentyl)methyl)-5-methylhexanoic acid], the pIC50 in “Inhibition of dog ACE” was less than 5.52.
For the molecule `CCCC(CC1(C(=O)N[C@H](CO)Cc2ccccc2)CCCC1)C(=O)O` (stereo partly drawn) [2-((1-(((S)-1-hydroxy-3-phenylpropan-2-yl)carbamoyl)cyclopentyl)methyl)pentanoic acid], the figures for the pIC50 (in experiment [1]; in the experiment “Inhibition of dog ACE”) were 6.42 and less than 5.52, respectively.
In “Inhibition of dog ACE”, `CCC[C@@H](CC1(C(=O)Nc2nnc(CC)s2)CCCC1)C(=O)O` [(S)-2-((1-((5-ethyl-1,3,4-thiadiazol-2-yl)carbamoyl)cyclopentyl)methyl)pentanoic acid] showed a pIC50 of less than 5.52.
On the same count and under the same terms, the figure for `CCCC(CC1(C(=O)Nc2nnc(C)s2)CCCC1)C(=O)O` (racemic) [rac-2-((1-((5-methyl-1,3,4-thiadiazol-2-yl)carbamoyl)cyclopentyl)methyl)pentanoic acid] is less than 5.52.
On the same count and under the same terms, the figure for `CCCC(CC1(C(=O)N[C@@H]2CCCC[C@@H]2CCC)CCCC1)C(=O)O` (stereo partly drawn) [2-((1-(((1R,2S)-2-propylcyclohexyl)carbamoyl)cyclopentyl)methyl)pentanoic acid] is less than 5.52; for `CCC[C@H](CC1(C(=O)NC2(CO)Cc3ccccc3C2)CCCC1)C(=O)O` [(R)-2-((1-((2-(hydroxymethyl)-2,3-dihydro-1H-inden-2-yl)carbamoyl)cyclopentyl)methyl)pentanoic acid] it is less than 5.52.
With `CCCC(CC1(NC(=O)c2ccc(=O)n(Cc3ccccc3)c2)CCCC1)C(=O)O` (centres undefined) [2-((1-(1-benzyl-2-oxo-1,2-dihydropyridine-5-carboxamido)cyclopentyl)methyl)pentanoic acid], the negative-log IC50 (pIC50) in experiment [1] is less than 5.52.
`CCCC(CC1(C(=O)Nc2nnc(Cc3ccccc3)s2)CCCC1)C(=O)O` (centres undefined) [2-((1-((5-benzyl-1,3,4-thiadiazol-2-yl)carbamoyl)cyclopentyl)methyl)pentanoic acid] had a pIC50 in “Inhibition of dog ACE” of less than 5.52.
On the same count and under the same terms, the result for `CCCC(CC1(C(=O)Nc2nncs2)CCCC1)C(=O)O` (centres undefined) [2-((1-((1,3,4-thiadiazol-2-yl)carbamoyl)cyclopentyl)methyl)pentanoic acid] reads less than 5.52; that for `CCCC(CC1(C(=O)Nc2nnc(-c3ccccc3)s2)CCCC1)C(=O)O` (centres undefined) [2-((1-((5-phenyl-1,3,4-thiadiazol-2-yl)carbamoyl)cyclopentyl)methyl)pentanoic acid], less than 5.52.
Still for that read-out and setting: the result for `CCC[C@H](CC1(C(=O)Nc2nnc(C)s2)CCCC1)C(=O)O` [(R)-2-((1-((5-methyl-1,3,4-thiadiazol-2-yl)carbamoyl)cyclopentyl)methyl)pentanoic acid] reads less than 5.52; that for `CCCC(CC1(C(=O)NC2CCCC(C(=O)N(C)C)C2)CCCC1)C(=O)O` (centres undefined) [2-((1-((3-(dimethylcarbamoyl)cyclohexyl)carbamoyl)cyclopentyl)methyl)pentanoic acid], less than 5.52.

For orientation: pIC50 means −log10 of the IC50, conventionally taken in molar units. Read a high pIC50 as a low IC50.
